Source: patent publication US20060100226A1, “2-Thiopyrimidinones as therapeutic agents” (priority 2004, published 2006)

What was measured:
[1] = biological target: T1, murine MEKK2 (mMEKK2) (Mus musculus, UniProt Q61083); assay: MEKK2 PhosphoELISA (mMEKK2/MKK4); format: biochemical; details: substrate MKK4/SKK1 (unactive), ATP final 10 μM, O.D. 450 nm
T1 sequence (Q61083 1-619): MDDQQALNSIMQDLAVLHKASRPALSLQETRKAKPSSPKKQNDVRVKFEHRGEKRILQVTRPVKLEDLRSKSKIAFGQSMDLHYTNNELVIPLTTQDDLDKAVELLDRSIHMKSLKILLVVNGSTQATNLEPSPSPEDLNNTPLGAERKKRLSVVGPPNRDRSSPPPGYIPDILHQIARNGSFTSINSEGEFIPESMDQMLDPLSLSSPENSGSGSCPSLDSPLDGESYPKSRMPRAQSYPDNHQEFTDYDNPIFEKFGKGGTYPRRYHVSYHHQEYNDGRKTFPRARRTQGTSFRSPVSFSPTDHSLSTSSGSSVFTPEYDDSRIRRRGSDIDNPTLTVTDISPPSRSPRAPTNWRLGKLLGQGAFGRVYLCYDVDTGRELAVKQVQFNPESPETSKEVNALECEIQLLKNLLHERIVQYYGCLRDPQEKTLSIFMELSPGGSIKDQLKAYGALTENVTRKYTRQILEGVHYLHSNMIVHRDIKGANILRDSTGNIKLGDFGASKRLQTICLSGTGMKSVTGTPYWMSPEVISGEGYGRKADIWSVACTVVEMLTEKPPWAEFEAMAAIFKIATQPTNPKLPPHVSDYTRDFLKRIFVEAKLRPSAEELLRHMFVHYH
Text: Another useful method for assessing protein kinase inhibition, and specifically MEKK2 inhibition, of compounds of the invention involves the MEKK2 phospho-antibody enzyme-linked immunosorbent assay (PhosphoELISA). This screening panel, which involves relatively few steps, is a useful indicator of potential inhibitors of MEKK2. Reactions to murine MEKK2 are observed as optical density measurements at an absorbance of 450 nm. Inhibitory activities can be expressed in terms of IC50, where IC50 is the molar concentration of compound required to inhibit protein kinase binding by 50%.
A phospho-antibody enzyme-linked immunosorbent assay (PhosphoELISA) was used to screen potential inhibitors of MEKK2. The assay was performed as follows: Compounds to be tested were weighed and solubilized in DMSO (Sigma) to a stock concentration of 10 mM. Serial dilutions starting from 1 mM were prepared with additional DMSO. These dilutions were further diluted to 250 μM in kinase reaction buffer [20 mM Hepes pH 7.5, 5 mM MgCl2, 1 mM DTT (Dithiothreitol-Sigma), 1 mM NaVO4 (sodium vanadate- Sigma). A 25 μl aliquot of this solution was transferred to a glutathione coated 96-well microplate (Pierce). A stock aliquot containing 50-125 ng of murine MEKK2 (mMEKK2) was added to each well and incubated on the microplate for 10 minutes at room temperature. A 25 μl solution of MKK4/SKK1 (unactive) was diluted 1:200 in kinase assay buffer and added to the reaction plate followed by 50 μl of 25 μM ATP (adenosine triphosphate) to afford a final well concentration of 10 μM. The reaction was allowed to proceed for 60 minutes at room temperature before washing 3 times with wash buffer [100 mM phosphate pH 7.5, 0.05% TWEEN 20 (Sigma)]. A solution of anti-phospho MKK4/SEK1 antibody (Calbiochem) and biotin anti rabbit IgG (Jackson Immunoresearch) was diluted 1:2500 in kinase reaction buffer and added to the appropriate wells. The reaction was incubated for 60 minutes at room temperature. The microplate was washed 3 times with wash buffer and 100 ul of streptavidin horseradish peroxidase (HRP-Pierce) was added and incubated for 30 minutes at room temperature. The microplate was washed 3 times with wash buffer and 100 μl of TMB (3,3′,5,5′-tetramethylbenzidine-Sigma) was added. The assay was allowed to develop for 15-20 minutes then the reaction was stopped with the addition of 100 μl of 0.2 N sulfuric acid. The optical density (O.D.) of the plate was read on the Victor™ plate reader using the absorbance at 450 nm.

[2] = biological target: T1, murine MEKK2 (mMEKK2); assay: TR-FRET kinase assay (mMEKK2/MBP); format: biochemical; details: substrate biotin MBP, 60 minutes at room temperature
Method in brief: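 mMEKK2 was preincubated 10 min with compound in pH 7.5 Hepes/MgCl2/DTT/vanadate buffer, then biotin-MBP, anti-phospho-MBP antibody and ATP (5 uM solution added) were added and the reaction ran 60 min at room temperature. After EDTA stop, europium anti-mouse IgG and Cy5-streptavidin were added and TR-FRET was read at 615/665 nm.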

| Structure (SMILES) | IC50 [1] [µM] | IC50 [2] [µM] |
| --- | --- | --- |
| N#Cc1c(-c2ccc(OC(F)(F)F)cc2)nc(SCc2cccc(NC(=O)c3ccc(Cl)c(Cl)c3)c2)[nH]c1=O [Example 2hh, 3,4-Dichloro-N-{3-[5-cyano-6-oxo-4-(4-trifluoromethoxy-phenyl)-1,6-dihydro-pyrimidin-2-ylsulfanylmethyl]-phenyl}-benzamide] | < 20 | < 40 |
| COc1cccc(-c2nc(SCc3cccc(NC(=O)c4c(-c5ccccc5)noc4C)c3)[nH]c(=O)c2C#N)c1 [Example 2i] | < 10 | < 10 |
| N#Cc1c(-c2cccc([N+](=O)[O-])c2)nc(SCc2cccc(NC(=O)c3ccc(Cl)c(Cl)c3)c2)[nH]c1=O [Example 2ii, 3,4-Dichloro-N-{3-[5-cyano-4-(3-nitro-phenyl)-6-oxo-1,6-dihydro-pyrimidin-2-ylsulfanylmethyl]-phenyl}-benzamide] | < 1 | < 5 |
| COc1ccc(-c2nc(SCc3cccc(NC(=O)c4ccc(Cl)c(Cl)c4)c3)[nH]c(=O)c2C#N)cc1-c1cccs1 [Example 2y, 3,4-Dichloro-N-{3-[5-cyano-4-(4-methoxy-3-thiophen-2-yl-phenyl)-6-oxo-1,6-dihydro-pyrimidin-2-ylsulfanylmethyl]-phenyl}-benzamide] | < 1 | < 5 |
| N#Cc1c(-c2cccc(-c3cc4ccccc4s3)c2)nc(SCc2cccc(NC(=O)c3ccc(Cl)c(Cl)c3)c2)[nH]c1=O [Example 2z, N-{3-[4-(3-Benzo[b]thiophen-2-yl-phenyl)-5-cyano-6-oxo-1,6-dihydro-pyrimidin-2-ylsulfanylmethyl]-phenyl}-3,4-dichloro-benzamide] | < 1 | < 1 |
| N#Cc1c(-c2cccc(N)c2)nc(SCc2cccc(NC(=O)c3ccc(Cl)c(Cl)c3)c2)[nH]c1=O [Example 4n] | < 10 | < 10 |
